Calls of active or inactive are those of the source. The calls are words filed in the database; no cut-off is given here.
Tests used:
[1] = Metabolic stability in human liver microsome assessed as intrinsic clearance by LC/MS analysis; type: ADME; conditions: liver microsomes, read-out: CLH
CT26 [2] = assay: Antitumor activity against mouse CT26 cells implanted in BALB/c mouse assessed as tumor growth inhibition at 200 mg/kg, po administered for 2 weeks and measured on day 15 in the presence of anti-PD-L1 antibody relative to control; type: functional; conditions: CT26, 360 h, time 15 day, read-out: TGI
[3] = Cmax in BALB/c mouse at 20 mg/kg, po measured after 24 hrs by LC-MS/MS analysis; type: ADME, organism-based; parameters: dose 20 mg/kg, time 24 hrs, route po; conditions: in vivo
[4] = molecular target: T1, Ectonucleotide pyrophosphatase/phosphodiesterase family member 1 (Homo sapiens, UniProt P22413); assay: Inhibition of recombinant human ENPP1 using cGAMP as substrate assessed as inhibition of cGAMP hydrolysis preincubated for 5 to 10 mins followed by substrate addition and measured after 90 mins by AMP-Glo reagent based luminescence plate reader analysis
T1 sequence (P22413 whole entry): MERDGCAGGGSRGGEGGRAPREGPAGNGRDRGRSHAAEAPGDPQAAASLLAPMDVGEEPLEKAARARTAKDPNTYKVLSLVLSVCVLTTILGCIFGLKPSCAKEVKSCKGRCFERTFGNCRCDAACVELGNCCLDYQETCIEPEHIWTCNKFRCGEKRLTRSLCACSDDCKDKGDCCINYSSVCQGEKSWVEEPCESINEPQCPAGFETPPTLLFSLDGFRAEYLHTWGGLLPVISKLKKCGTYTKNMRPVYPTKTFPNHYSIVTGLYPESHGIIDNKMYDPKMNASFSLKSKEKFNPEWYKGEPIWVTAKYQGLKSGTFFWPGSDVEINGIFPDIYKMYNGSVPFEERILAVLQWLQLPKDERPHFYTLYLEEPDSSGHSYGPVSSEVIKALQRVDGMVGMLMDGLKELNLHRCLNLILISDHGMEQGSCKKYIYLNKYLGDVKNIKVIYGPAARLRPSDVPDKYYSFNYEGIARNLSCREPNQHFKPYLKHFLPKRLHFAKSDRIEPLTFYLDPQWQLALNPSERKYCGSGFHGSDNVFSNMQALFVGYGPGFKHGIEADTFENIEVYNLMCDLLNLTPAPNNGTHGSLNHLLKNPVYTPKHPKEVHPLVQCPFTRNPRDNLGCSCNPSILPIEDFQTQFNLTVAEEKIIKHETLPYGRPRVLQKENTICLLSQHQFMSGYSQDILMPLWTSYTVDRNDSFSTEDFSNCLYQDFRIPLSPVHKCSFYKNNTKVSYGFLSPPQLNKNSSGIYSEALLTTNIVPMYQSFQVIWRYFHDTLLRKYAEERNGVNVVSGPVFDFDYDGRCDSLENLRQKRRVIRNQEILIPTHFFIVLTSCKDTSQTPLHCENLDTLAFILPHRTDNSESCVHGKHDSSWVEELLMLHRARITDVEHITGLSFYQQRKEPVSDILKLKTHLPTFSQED

THP-1 = assay: Cytotoxicity against human THP-1 cells assessed as reduction in cell viability upto 50 uM incubated for 24 hrs in the presence of cGAMP by celltiter 96 aqueous one solution cell proliferation assay; type: toxicity, cell-based; conditions: thp-1, 24 h
[5] = MRT (0 to t) in BALB/c mouse at 5 mg/kg, iv measured after 24 hrs by LC-MS/MS analysis; type: ADME, organism-based; conditions: in vivo
[6] = MRT (0 to infinity) in BALB/c mouse at 20 mg/kg, po measured after 24 hrs by LC-MS/MS analysis; type: ADME, organism-based; conditions: in vivo
[7] = Tmax in BALB/c mouse at 5 mg/kg, iv measured after 24 hrs by LC-MS/MS analysis; type: ADME, organism-based; conditions: in vivo
[8] = AUC (0 to infinity) in BALB/c mouse at 20 mg/kg, po measured after 24 hrs by LC-MS/MS analysis; type: ADME, organism-based; parameters: time 24 hrs, dose 20 mg/kg, route po; conditions: in vivo
[9] = Volume of distribution at steady state in BALB/c mouse at 5 mg/kg, iv measured after 24 hrs by LC-MS/MS analysis; type: ADME, organism-based; conditions: in vivo, read-out: Vdss
[10] = Metabolic stability in human liver microsome assessed as half-life by LC/MS analysis; type: ADME; conditions: liver microsomes
CT26 [11] = assay: Antitumor activity against mouse CT26 cells implanted in BALB/c mouse assessed as tumor growth inhibition at 200 mg/kg, po administered for 2 weeks and measured on day 15 relative to control; type: functional; conditions: CT26, 360 h, time 15 day, read-out: TGI
[12] = Tmax in BALB/c mouse at 20 mg/kg, po measured after 24 hrs by LC-MS/MS analysis; type: ADME, organism-based; conditions: in vivo
[13] = Toxicity in BALB/c mouse implanted with mouse CT26 cells assessed as effect on body weight at 200 mg/kg, po administered for 2 weeks and measured on day 15 in the presence of anti-PD-L1 antibody; type: organism-based; conditions: in vivo, 360 h, time 15 day
Cytochrome P450 2C19 = Cytochrome P450 2C19 (Homo sapiens, UniProt P33261); assay: Inhibition of CYP2C19 in human liver microsomes; type: ADME, Microsome
[14] = Half-life in BALB/c mouse at 5 mg/kg, iv measured after 24 hrs by LC-MS/MS analysis; type: ADME, organism-based; conditions: in vivo
[15] = MRT (0 to infinity) in BALB/c mouse at 5 mg/kg, iv measured after 24 hrs by LC-MS/MS analysis; type: ADME, organism-based; conditions: in vivo
[16] = molecular target: Stimulator of interferon genes protein (Homo sapiens) (UniProt Q86WV6); assay: Activation of STING-mediated immune response in human HCT-116 cells transfected with ISRE reporter assessed as increase in cGAMP-induced ISRE activation at 25 to 100 uM preincubated with compound for 1 hrs followed by cGAMP addition and measured after 48 hrs by luciferase reporter gene assay; type: cell-based; conditions: filed as activator, dose 25-100 µM, time 49.0 hrs
[17] = Metabolic stability in mouse liver microsome assessed as intrinsic clearance by LC/MS analysis; type: ADME; conditions: liver microsomes, read-out: CLH
[18] = Clearance in BALB/c mouse at 5 mg/kg, iv measured after 24 hrs by LC-MS/MS analysis; type: ADME, organism-based; conditions: in vivo
[19] = Toxicity in BALB/c mouse implanted with mouse CT26 cells assessed as effect on body weight at 200 mg/kg, po administered for 2 weeks and measured on day 15; type: organism-based; conditions: in vivo, 360 h, time 15 day
[20] = Protein binding in human plasma assessed as unbound fraction by equilibrium dialysis based LC-MS/MS analysis; type: ADME, cell-free
[21] = Protein binding in mouse plasma assessed as unbound fraction by equilibrium dialysis based LC-MS/MS analysis; type: ADME, cell-free
[22] = molecular target: Stimulator of interferon genes protein (Homo sapiens) (UniProt Q86WV6); assay: Activation of STING-mediated immune response in human HCT-116 cells transfected with ISRE reporter assessed as increase in cGAMP-induced ISRE activation by measuring fold change at 25 to 100 uM preincubated with compound for 1 hrs followed by cGAMP addition and measured after 48 hrs by luciferase reporter gene assay; type: cell-based; conditions: filed as activator, dose 25-100 µM, time 49.0 hrs
Cytochrome P450 2D6 = Cytochrome P450 2D6 (Homo sapiens, UniProt P10635); assay: Inhibition of CYP2D6 in human liver microsomes; type: ADME, Microsome
HCT-116 = assay: Cytotoxicity against human HCT-116 cells assessed as reduction in cell viability upto 200 uM incubated for 48 hrs in the presence of cGAMP by celltiter 96 aqueous one solution cell proliferation assay; type: functional, cell-based
Cytochrome P450 3A4 = Cytochrome P450 3A4 (Homo sapiens, UniProt P08684); assay: Inhibition of CYP3A4 in human liver microsomes; type: ADME, Microsome
Sequence of Cytochrome P450 3A4 (P08684 whole entry): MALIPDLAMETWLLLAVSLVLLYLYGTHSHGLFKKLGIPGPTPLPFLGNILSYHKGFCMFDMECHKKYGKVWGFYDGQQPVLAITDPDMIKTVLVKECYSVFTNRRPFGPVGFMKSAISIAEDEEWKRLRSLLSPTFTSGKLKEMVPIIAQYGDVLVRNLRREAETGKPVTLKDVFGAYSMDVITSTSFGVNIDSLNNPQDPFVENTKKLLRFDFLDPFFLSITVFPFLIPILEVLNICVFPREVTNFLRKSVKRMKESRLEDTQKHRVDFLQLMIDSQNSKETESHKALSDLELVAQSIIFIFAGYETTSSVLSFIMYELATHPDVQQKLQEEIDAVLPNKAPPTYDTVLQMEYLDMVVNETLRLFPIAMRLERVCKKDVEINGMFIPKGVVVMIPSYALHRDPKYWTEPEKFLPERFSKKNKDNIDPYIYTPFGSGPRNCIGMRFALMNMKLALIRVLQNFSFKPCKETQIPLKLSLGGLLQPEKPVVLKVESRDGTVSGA

Sequence of Stimulator of interferon genes protein (Homo sapiens) (Q86WV6 whole entry): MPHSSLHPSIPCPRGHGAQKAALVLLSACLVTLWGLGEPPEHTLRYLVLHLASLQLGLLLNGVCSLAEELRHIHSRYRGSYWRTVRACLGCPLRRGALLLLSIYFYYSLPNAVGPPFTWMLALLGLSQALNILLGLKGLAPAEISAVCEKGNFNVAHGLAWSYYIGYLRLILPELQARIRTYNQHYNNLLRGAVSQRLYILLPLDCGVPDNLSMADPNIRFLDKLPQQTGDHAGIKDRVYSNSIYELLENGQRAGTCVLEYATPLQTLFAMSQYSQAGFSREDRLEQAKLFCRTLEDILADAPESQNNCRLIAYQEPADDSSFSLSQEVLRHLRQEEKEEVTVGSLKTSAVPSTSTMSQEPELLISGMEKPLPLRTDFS
Sequence of Cytochrome P450 2C19 (P33261 whole entry): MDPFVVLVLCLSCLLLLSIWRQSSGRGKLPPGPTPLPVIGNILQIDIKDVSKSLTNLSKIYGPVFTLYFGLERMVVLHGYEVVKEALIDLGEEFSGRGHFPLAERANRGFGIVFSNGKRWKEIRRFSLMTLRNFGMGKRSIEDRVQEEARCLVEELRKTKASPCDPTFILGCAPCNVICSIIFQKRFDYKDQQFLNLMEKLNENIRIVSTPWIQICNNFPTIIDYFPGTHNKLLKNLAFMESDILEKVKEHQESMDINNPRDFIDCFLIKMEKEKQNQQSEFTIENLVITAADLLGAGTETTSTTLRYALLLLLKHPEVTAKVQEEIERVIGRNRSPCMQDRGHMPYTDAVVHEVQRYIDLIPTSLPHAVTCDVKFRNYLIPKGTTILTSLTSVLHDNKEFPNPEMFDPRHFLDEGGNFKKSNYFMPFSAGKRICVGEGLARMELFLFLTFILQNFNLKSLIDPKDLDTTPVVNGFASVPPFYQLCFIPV
Sequence of Cytochrome P450 2D6 (P10635 whole entry): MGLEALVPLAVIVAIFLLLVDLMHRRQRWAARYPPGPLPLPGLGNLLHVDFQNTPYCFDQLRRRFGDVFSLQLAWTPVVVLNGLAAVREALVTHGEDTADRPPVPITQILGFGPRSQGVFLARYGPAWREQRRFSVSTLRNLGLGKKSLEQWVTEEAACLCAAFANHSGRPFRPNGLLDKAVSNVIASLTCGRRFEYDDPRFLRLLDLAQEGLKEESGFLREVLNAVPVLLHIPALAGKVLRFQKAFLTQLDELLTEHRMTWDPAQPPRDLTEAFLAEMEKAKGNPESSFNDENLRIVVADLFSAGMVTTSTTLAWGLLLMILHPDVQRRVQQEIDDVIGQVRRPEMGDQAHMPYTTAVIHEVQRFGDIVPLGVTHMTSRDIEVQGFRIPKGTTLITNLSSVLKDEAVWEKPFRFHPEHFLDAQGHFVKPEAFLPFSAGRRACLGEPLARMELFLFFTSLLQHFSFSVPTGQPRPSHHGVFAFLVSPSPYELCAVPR

Cn1nc(Cc2ccc(NS(N)(=O)=O)cc2)c2ccccc2c1=O
CLint scaled [1]: < 14.5 mL/min/kg
inhibition in vivo at 200 mg/kg (CT26 [2]): 69%
Cmax [3]: 12700 ng/mL
IC50 [4]: 0.068 µM
Activity (THP-1): Non-Toxic
MRT last at 24 h [5]: 2.83 h
MRT inf [6]: 3.81 h
Tmax [7]: 4.8 min
AUC(0-inf) [8]: 79600 ng·h/mL
Vd [9]: 0.51 L/kg
half-life [10]: > 2 h
inhibition in vivo at 200 mg/kg (CT26 [11]): 55%
Tmax [12]: 1.67 h
Activity [13]: Non-Toxic
IC50 (Cytochrome P450 2C19): > 10 µM
half-life [14]: 3.61 h
MRT inf [15]: 3.21 h
Activity [16]: Active
CLint scaled [17]: 92.1 mL/min/kg
clearance [18]: 2.88 mL/min/kg
Activity [19]: Non-Toxic
fraction unbound [20]: 0.18
fraction unbound [21]: 0.09
fold change (FC) [22]: 3.63
IC50 (Cytochrome P450 2D6): > 10 µM
Activity (HCT-116): Not toxic
IC50 (Cytochrome P450 3A4): > 10 µM

— ChEMBL document CHEMBL5370672, “Discovery of Orally Bioavailable Phthalazinone Analogues as an ENPP1 Inhibitor for STING-Mediated Cancer Immunotherapy” (J Med Chem, 2023)
